According to patent publication US9169182B2, “Chrysophaentin analogs that inhibit FtsZ protein” (priority 2011, dated 2015):
≈ marks a conversion by molar mass, not a printed value.

Assays:
[1] = tested on: Bacillus subtilis (ATCC 49343); experiment: Microbroth dilution assay; format: cell-based; details: ATCC49343, read-out: MIC50 values in μM BS
Protocol: (§1) Compounds 1-8 were tested for antimicrobial activity against Staphylococcus aureus (SA, ATCC 25923), methicillin-resistant S. aureus (MRSA, ATCC BAA-41), multidrug-resistant S. aureus (MDRSA, ATCC BAA-44), Enterococcus faecium (EF, ATCC 49032), vancomycin-resistant E. Faecium (VRE, ATCC 700221), and Bacillus subtilis (ATCC 49343) using a modified disk diffusion assay and microbroth liquid dilution assays. For disk diffusion assays, agar plates seeded with suspensions of bacteria were prepared by adding 500 μL of a 24 h culture of bacteria to 100 mL of autoclaved Mueller Hinton II agar and cooled to 55° C. Seeded liquid agar (10 mL) was transferred immediately to square Petri dishes and allowed to cool for 1 h. Control drugs used for each microorganism included kanamycin (50 μg) for S. aureus, and nitrofurantoin (25 μg) for MRSA. Following incubation at 37° C. for 18 h, zones of inhibition were measured. MICso values for compounds 1 and 4-8 were determined using a microbroth dilution assay outlined in the Clinical and Laboratory Standards Institute methods for susceptibility tests for bacteria that grow aerobically. Briefly, single bacterial colonies were used to inoculate 4 mL of Trypticase Soy broth (BD) for overnight growth and inoculum for each were diluted to 5×10^5 CFU/mL using the 0.5 McFarland standard. In a 96 well plate (Costar, round bottom), control antibiotics (oxacillin for SA and MRSA, vancomycin for EF and VRE, chloramphenicol for B. subtilis) or natural product inhibitors were added to Mueller Hinton II broth (for S. aureus, MRSA, and B. subtilis) or 10% brain heart infusion broth (for E. faecium and VRE) in the first column of the well plates, and serially diluted across the plate, reserving wells for a positive growth control (no treatment). 10 μL of diluted bacteria were added to all wells with the exception of those kept for broth blanks (MHII or brain heart infusion broth only). Plates were incubated at 37° C. overnight and read at absorbance 600 nm on a Molecular Devices plate reader. Growth curves were plotted and ICso values obtained using Kalidagraph software.
(§2) Compounds J23 and J24 were tested for antimicrobial activity against Bacillus subtilis (BS, ATCC 49343), Staphylococcus aureus (SA, ATCC 25923), methicillin-resistant S. aureus (MRSA, ATCC BAA-41), multidrug-resistant S. aureus (MDRSA, ATCC BAA-44), Escherichia coli (EC, ATCC 8739), envelope-deficient E. coli (envA-EC; permeable (envA-) BL21(DE3)pLysS E. coli [constructed using standard P1 transduction methodology, utilizing a Tn10transposon linked to the envA1 gene]; Wang et al., J. Biol. Chem. 2003, 278(45):44424-44428), a clinical isolate of S. aureus (UAMS-1; clinical osteomyelitis isolate; Olson et al., PLoS Pathogens 2011, 7(2):e1001287, www.plospathogens.org), and a clinical isolate of MRSA (USA300; the strain USA300-0114 is the predominant cause of U.S. community-associated methicillin resistant S. aureus infections). MIC50 values were determined using a microbroth dilution assay as described in Example 2. E. coli was grown in Mueller Hinton II broth.

[2] = tested on: Escherichia coli (EC, ATCC 8739); experiment: Microbroth dilution assay; format: cell-based; details: ATCC8739
Protocol: as §1, §2

[3] = tested on: Staphylococcus aureus (SA, ATCC 25923); experiment: Microbroth dilution assay; format: cell-based; details: ATCC25923, microbroth dilution
Protocol: as §1, §2

[4] = tested on: envelope-deficient E. coli (envA-EC); experiment: Microbroth dilution assay; format: cell-based; details: Escherichia coli, read-out: MIC50 values in μM envA-EC
Protocol: as §1, §2

[5] = tested on: methicillin-resistant S. aureus (MRSA, ATCC BAA-41); experiment: Microbroth dilution assay; format: cell-based; details: Staphylococcus aureus
Protocol: as §1, §2

[6] = tested on: multidrug-resistant S. aureus (MDRSA, ATCC BAA-44); experiment: Microbroth dilution assay; format: cell-based; details: Staphylococcus aureus, ATCCBAA44, read-out: MIC50 values in μM MDRSA
Protocol: as §1, §2

[7] = molecular target: Sa-FtsZ (Staphylococcus aureus, UniProt P0A031); format: biochemical; details: GTPase assay; read-out: FtsZ in vitro IC50 μM Sa-FtsZ
Protocol: (§3) Solutions were incubated at room temperature for 5 min, followed by addition of 0.25 mM GTP. At the end of a 20-min incubation period, enzyme activity was quenched by addition of 50 μL Malachite Green solution and the wells read at A^625 on an absorbance plate reader.

[8] = molecular target: recombinant E. coli FtsZ (Escherichia coli (strain K12), UniProt P0A9A6); experiment: FtsZ GTPase assay (malachite green); details: read-out: FtsZ in vitro IC50 μM Ec-FtsZ
Sequence of recombinant E. coli FtsZ (P0A9A6 whole entry, looked up): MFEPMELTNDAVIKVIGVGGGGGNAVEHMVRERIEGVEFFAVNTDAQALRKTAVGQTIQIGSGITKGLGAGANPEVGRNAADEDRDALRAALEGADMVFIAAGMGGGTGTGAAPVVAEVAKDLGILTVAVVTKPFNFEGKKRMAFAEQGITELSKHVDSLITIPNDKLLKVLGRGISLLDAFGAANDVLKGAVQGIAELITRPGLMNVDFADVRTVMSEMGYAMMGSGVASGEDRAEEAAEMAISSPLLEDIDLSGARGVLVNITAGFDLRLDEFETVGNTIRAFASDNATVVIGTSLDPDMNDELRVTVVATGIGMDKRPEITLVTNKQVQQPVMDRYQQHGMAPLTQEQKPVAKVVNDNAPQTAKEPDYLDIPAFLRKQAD
Protocol: as §3

[9] = tested on: clinical isolate of MRSA (USA300); experiment: Microbroth dilution assay; format: cell-based; details: Staphylococcus aureus
Protocol: as §1, §2

[10] = tested on: clinical isolate of S. aureus (UAMS-1); experiment: Microbroth dilution assay; format: cell-based; details: Staphylococcus aureus
Protocol: as §1, §2

For `Oc1cc(O)cc(C/C(Cl)=C\Cc2cc(O)c(Cl)cc2O)c1` [Compound J24, (E)-5-(2-chloro-4-(4-chloro-2,5-dihydroxyphenyl)but-2-enyl)-benzene-1,3-diol], the MIC50 [1] was 11 µM (≈ 3.75 µg/mL), the MIC50 [2] was greater than 290 µM and the MIC50 [3] was 18 µM (≈ 6.14 µg/mL). It also gave an MIC50 [4] of 72 µM (≈ 24.6 µg/mL), an MIC50 [5] of 22 µM (≈ 7.51 µg/mL) and an MIC50 [6] of 26 µM (≈ 8.87 µg/mL). For the same compound, the IC50 [7] was 88 ± 11 µM and the IC50 [8] was 160 ± 30 µM.

For `COc1cc(C/C=C(/Cl)Cc2cc(O)cc(O)c2)c(OC)cc1Cl` [Compound J23, (E)-5-(2-chloro-4-(4-chloro-2,5-dimethoxyphenyl)but-2-enyl)benzene-1,3-diol], the MIC50 [1] was 19 µM (≈ 7.02 µg/mL), the MIC50 [2] was greater than 270 µM and the MIC50 [3] was 12 µM (≈ 4.43 µg/mL). It also gave an MIC50 [9] of 6 µM (≈ 2.22 µg/mL), an MIC50 [10] of 7.4 µM (≈ 2.73 µg/mL) and an MIC50 [4] of 120 µM (≈ 44.3 µg/mL). For the same compound, the MIC50 [5] was 12 µM (≈ 4.43 µg/mL), the MIC50 [6] was 12 µM (≈ 4.43 µg/mL) and the IC50 [7] was 44 ± 12 µM. It also gave an IC50 [8] of 36 ± 7 µM.
